Reference: ChEMBL document CHEMBL1201862, “PubChem BioAssay data set” (2004)
Active and inactive are the calls of the source.

How the values were obtained:
[1] = molecular target: Glucose-6-phosphate 1-dehydrogenase (Homo sapiens, UniProt P11413); assay: inhibition of Homo sapiens G6PD, dose series – biochemical, fluorescence, selectivity assay for P. falciparum G6PD inhibitor project, dose response (AID 504792); type: functional
HeLa = assay: viability loss in HeLa cells – cell-based, 24 h, cherry-picked samples, cytotoxicity control, dose response (AID 504726); type: functional; conditions: Homo sapiens;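 note: potency for cytotoxicity as loss of luminescence signal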
ORF 73 = ORF 73 (Human herpesvirus 8, UniProt O40947); assay: KSHV LANA DNA-binding disruption – biochemical, fluorescence polarization, cherry-picked samples, dose response (AID 504725); design: species or system Human gammaherpesvirus 8;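 note: fluorescence polarization of a labeled DNA duplex reporting LANA DNA binding; potency is for inhibitors that block LANA binding to the DNA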
Keap1/Nrf2 = Keap1/Nrf2 (Homo sapiens, UniProt Q14145); assay: disruptors of Keap1 binding to Nrf2 peptide – biochemical, fluorescence polarization, cherry-picked samples, dose response (AID 588683)
Genome polyprotein = Genome polyprotein (dengue virus type 2, UniProt P29990); assay: flavivirus cap methylation enzyme inhibition – biochemical, confirmation dose response, primary screen (AID 588689); type: functional
[2] = molecular target: T1, Small ubiquitin-related modifier 1 (Homo sapiens, UniProt P63165); assay: SUMO1 protein interaction blockers, potency – biochemical, fluorescence polarization, uHTS hits, dose response (AID 624382); type: functional; conditions: read-out: IC50_Mean
[3] = molecular target: T1, Small ubiquitin-related modifier 1; assay: SUMO1 protein-protein binding blockers, potency – biochemical, FRET, dose response (AID 624383); type: functional; conditions: read-out: IC50_Mean
[4] = molecular target: T2, Rac GTPase-activating protein 1 (Homo sapiens, UniProt Q9H0H5); assay: blockers of MgcRacGAP-driven Rac1 GTP hydrolysis – biochemical, ADP Hunter fluorescence, primary and confirmatory, confirmation (AID 624330); type: functional
T2 sequence (Q9H0H5 whole entry): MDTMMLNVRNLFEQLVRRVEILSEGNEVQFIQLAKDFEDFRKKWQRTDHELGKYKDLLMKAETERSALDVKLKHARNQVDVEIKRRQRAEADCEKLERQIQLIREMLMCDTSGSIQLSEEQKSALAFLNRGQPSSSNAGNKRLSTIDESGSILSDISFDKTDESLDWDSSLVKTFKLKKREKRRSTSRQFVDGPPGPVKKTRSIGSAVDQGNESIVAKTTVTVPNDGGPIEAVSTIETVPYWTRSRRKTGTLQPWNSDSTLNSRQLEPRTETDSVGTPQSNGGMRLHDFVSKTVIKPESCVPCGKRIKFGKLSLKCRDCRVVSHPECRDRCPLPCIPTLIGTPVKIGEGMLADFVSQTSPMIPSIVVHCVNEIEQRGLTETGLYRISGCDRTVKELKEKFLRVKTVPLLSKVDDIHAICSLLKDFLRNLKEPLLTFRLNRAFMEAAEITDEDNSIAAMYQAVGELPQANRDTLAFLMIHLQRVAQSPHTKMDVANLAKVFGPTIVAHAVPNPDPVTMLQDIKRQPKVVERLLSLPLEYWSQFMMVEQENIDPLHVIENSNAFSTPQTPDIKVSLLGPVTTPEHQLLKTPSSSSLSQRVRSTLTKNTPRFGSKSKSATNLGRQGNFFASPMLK

[5] = molecular target: T3, Histone-lysine N-methyltransferase NSD2 (Homo sapiens, UniProt O96028); type: biochemical
T3 sequence (O96028 whole entry): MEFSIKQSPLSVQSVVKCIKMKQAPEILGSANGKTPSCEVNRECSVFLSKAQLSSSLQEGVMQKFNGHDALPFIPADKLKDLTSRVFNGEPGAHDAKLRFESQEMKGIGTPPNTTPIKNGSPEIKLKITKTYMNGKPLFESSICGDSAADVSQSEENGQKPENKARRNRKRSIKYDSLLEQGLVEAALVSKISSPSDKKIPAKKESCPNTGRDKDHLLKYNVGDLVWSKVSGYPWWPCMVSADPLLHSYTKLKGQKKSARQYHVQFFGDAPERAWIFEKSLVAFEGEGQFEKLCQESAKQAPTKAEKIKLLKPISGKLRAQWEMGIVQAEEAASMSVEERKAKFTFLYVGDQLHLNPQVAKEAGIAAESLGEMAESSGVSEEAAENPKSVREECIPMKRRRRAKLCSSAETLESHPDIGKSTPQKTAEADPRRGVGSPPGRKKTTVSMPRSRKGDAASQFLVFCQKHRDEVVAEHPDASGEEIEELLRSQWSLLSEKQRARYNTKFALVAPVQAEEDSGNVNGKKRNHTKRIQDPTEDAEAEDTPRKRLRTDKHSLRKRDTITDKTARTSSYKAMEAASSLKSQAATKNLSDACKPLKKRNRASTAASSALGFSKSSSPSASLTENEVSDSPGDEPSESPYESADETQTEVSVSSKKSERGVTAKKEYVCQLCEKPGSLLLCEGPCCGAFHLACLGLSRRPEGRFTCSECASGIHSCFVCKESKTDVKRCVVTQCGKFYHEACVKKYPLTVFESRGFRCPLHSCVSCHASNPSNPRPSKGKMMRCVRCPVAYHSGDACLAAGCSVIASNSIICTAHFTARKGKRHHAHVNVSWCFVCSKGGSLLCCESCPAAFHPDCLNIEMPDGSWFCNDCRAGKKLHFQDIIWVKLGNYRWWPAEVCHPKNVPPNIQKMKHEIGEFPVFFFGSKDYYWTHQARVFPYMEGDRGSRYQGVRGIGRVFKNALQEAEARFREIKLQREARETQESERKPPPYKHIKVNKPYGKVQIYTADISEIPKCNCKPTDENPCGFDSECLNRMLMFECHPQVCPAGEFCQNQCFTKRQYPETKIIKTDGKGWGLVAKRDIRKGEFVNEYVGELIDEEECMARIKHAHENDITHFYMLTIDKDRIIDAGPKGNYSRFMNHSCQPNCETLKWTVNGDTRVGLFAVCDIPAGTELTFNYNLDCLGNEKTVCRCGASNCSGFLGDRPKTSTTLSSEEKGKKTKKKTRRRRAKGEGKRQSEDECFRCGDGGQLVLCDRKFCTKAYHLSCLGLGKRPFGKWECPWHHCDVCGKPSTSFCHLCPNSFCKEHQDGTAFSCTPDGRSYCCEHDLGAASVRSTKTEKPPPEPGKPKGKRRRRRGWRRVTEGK

ELAV-like protein 1 = ELAV-like protein 1 (Homo sapiens, UniProt Q15717); assay: Identify HuR specific inhibitors.; type: functional
[6] = molecular target: RNA-editing ligase 1, mitochondrial (Trypanosoma brucei brucei, UniProt P86926); assay: inhibition of trypanosome RNA editing ligase – biochemical, fluorescence, Trypanosoma brucei, dose response (AID 1117295); type: functional
[7] = viability of uninfected HEp-2 cells – cell-based, HTS, cytotoxicity control for RSV inhibitor project, dose response (AID 2410); type: functional; conditions: human respiratory syncytial virus
[8] = Luminescence Cell-Based Dose Retest to Confirm Inhibitors of Cancer Stem Cells. [Related pubchem assays (depositor defined):AID2717, AID2721]; type: functional; conditions: Homo sapiens
[9] = viability loss of HMLE_sh_eGFP cells – cell-based, luminescence, counter-screen for HMLE_sh_ECad selective toxicity project, dose response (AID 463074); type: functional, Homo sapiens;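 note: HMLE human mammary epithelial cells expressing control shRNA against eGFP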
Cytochrome P450 2C19 = Cytochrome P450 2C19 (Homo sapiens, UniProt P33261); assay: Cytochrome panel assay with activity outcomes. Panel member name: p450-cyp2c19 Compounds with AC50 equal or less than 10 uM are considered active; type: functional; conditions: read-out: AC50
Cytochrome P450 2D6 = Cytochrome P450 2D6 (Homo sapiens, UniProt P10635);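 note: CYP2D6 member of a cytochrome P450 panel assay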
Cytochrome P450 2C9 = Cytochrome P450 2C9 (Homo sapiens, UniProt P11712)
[10] = molecular target: Beta-adrenergic receptor kinase 1 (Homo sapiens, UniProt P25098); assay: blockers of aptamer binding to GRK2 – biochemical, flow cytometry beads, FAM-aptamer, powder set 1, dose response (AID 588720)
[11] = molecular target: T4, Carboxy-terminal domain RNA polymerase II polypeptide A small phosphatase 1 (Homo sapiens, UniProt Q9GZU7); assay: CTDSP1 inhibitors, concentration-response, biochemical, absorbance readout, ultra-high-throughput screen actives (AID 540297); type: functional
T4 sequence (Q9GZU7 whole entry): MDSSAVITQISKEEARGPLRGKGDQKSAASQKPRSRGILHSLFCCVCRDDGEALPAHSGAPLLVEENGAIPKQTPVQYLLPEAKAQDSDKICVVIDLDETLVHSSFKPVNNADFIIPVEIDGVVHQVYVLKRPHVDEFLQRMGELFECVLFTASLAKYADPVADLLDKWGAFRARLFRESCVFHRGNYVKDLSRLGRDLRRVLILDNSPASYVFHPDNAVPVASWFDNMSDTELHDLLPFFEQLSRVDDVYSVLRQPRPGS

Cytochrome P450 1A2 = molecular target: T5, Cytochrome P450 1A2 (Homo sapiens, UniProt P05177);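 note: PubChem cytochrome P450 panel assay, CYP1A2 panel member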
T5 sequence (P05177 whole entry): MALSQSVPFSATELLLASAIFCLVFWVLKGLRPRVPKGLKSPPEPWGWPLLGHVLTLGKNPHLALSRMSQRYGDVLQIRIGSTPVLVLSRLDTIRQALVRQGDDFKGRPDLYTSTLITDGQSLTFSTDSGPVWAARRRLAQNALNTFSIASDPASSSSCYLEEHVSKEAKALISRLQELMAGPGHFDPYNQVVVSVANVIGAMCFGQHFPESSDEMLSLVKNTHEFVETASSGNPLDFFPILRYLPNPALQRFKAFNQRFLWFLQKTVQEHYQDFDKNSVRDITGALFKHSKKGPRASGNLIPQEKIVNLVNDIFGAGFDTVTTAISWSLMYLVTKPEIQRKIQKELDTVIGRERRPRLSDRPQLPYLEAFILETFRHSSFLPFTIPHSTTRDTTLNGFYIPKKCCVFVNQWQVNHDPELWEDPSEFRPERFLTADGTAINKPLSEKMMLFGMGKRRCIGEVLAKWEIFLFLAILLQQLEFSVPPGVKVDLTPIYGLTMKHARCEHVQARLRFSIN

[12] = molecular target: T6, RNA-binding protein pos-1 (Caenorhabditis elegans, UniProt G5EF15); assay: disruptors of C. elegans POS-1 RNA interaction – biochemical, fluorescence polarization, dose response (AID 1964);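 note: purified POS-1 fused to maltose binding protein made in E. coli; potency of compounds blocking POS-1 binding to fluorescent RNA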
T6 sequence (G5EF15 whole entry): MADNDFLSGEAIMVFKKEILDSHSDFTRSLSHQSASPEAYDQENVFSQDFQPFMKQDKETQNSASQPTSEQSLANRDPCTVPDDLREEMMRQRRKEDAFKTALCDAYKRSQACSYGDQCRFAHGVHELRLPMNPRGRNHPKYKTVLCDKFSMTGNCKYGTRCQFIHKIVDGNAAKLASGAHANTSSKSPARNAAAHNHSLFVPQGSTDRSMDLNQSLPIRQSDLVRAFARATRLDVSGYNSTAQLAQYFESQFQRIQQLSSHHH

[13] = molecular target: T7, Zinc finger protein mex-5 (Caenorhabditis elegans, UniProt Q9XUB2); assay: potency of MEX-5 RNA-binding blockers – biochemical, C. elegans, fluorescence polarization, dose response (AID 1960)
T7 sequence (Q9XUB2 whole entry): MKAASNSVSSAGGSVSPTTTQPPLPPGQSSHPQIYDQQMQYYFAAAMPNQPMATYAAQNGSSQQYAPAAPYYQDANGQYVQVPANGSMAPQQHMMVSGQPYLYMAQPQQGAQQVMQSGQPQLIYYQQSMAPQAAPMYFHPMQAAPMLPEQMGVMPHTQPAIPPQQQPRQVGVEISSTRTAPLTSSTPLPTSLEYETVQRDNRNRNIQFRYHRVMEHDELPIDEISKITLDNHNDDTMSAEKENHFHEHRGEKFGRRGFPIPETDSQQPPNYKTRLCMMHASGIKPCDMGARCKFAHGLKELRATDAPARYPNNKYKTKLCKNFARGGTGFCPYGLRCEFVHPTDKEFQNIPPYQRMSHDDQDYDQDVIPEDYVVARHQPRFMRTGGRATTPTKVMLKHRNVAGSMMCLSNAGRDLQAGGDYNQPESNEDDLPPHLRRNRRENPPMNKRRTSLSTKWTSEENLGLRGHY

[14] = molecular target: UDP-galactopyranose mutase (Mycobacterium tuberculosis, UniProt P9WIQ1); assay: Inhibitors of Mycobacterium tuberculosis UDP-galactopyranose mutase (UGM) enzyme Measured in Biochemical System Using Plate Reader - 2105-02_Inhibitor_Dose_CherryPick_Activity. [Related pubchem assays (depositor defined):AID504439]
Sequence of UDP-galactopyranose mutase (P9WIQ1 whole entry): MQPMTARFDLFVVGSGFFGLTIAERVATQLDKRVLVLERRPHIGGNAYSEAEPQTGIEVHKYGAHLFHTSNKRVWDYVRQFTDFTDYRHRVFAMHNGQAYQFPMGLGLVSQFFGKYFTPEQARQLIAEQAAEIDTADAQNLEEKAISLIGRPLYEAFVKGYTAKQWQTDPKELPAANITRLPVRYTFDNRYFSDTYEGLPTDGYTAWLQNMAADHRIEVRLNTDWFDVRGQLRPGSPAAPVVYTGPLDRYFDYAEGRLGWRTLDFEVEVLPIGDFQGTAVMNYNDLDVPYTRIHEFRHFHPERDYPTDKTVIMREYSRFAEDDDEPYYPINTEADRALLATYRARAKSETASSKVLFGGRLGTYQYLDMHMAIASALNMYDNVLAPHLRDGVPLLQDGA

T1 sequence (P63165 whole entry): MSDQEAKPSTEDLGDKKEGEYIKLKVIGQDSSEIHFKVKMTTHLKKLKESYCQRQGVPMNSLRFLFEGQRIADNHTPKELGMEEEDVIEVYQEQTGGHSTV
Sequence of Cytochrome P450 2C9 (P11712 whole entry): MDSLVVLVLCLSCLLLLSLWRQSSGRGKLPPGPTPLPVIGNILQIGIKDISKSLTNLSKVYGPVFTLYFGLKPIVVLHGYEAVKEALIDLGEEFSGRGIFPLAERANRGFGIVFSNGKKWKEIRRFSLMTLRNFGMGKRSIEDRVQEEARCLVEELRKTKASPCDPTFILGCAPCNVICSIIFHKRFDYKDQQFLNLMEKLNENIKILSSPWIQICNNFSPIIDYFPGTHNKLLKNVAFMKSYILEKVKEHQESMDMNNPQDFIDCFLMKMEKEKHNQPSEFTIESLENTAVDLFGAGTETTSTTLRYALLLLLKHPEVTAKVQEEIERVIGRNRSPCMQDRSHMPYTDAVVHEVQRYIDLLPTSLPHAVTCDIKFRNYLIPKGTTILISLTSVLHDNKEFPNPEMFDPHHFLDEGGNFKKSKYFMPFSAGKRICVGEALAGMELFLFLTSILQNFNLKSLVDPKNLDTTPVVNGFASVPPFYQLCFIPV
Sequence of ELAV-like protein 1 (Q15717 whole entry): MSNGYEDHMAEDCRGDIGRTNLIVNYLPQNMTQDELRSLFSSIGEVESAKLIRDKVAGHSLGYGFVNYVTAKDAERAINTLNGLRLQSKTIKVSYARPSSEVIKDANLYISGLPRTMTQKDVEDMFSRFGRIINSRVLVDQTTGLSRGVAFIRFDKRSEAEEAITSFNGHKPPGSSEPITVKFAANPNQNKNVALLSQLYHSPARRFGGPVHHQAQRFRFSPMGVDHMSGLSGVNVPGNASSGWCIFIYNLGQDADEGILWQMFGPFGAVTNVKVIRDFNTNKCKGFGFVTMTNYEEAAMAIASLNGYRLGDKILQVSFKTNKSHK
Sequence of RNA-editing ligase 1, mitochondrial (P86926 whole entry): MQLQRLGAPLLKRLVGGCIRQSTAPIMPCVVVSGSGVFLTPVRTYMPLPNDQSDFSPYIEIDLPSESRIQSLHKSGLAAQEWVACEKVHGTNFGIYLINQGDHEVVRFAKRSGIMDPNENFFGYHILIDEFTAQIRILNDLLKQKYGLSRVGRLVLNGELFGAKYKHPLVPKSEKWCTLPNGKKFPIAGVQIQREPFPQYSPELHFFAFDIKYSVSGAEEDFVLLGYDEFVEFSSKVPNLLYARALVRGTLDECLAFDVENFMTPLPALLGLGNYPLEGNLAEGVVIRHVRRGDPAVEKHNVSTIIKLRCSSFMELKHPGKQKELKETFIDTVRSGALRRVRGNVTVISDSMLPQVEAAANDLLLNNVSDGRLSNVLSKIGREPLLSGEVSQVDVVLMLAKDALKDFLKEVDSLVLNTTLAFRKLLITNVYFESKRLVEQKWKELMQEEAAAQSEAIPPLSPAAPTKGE
Sequence of Glucose-6-phosphate 1-dehydrogenase (P11413 whole entry): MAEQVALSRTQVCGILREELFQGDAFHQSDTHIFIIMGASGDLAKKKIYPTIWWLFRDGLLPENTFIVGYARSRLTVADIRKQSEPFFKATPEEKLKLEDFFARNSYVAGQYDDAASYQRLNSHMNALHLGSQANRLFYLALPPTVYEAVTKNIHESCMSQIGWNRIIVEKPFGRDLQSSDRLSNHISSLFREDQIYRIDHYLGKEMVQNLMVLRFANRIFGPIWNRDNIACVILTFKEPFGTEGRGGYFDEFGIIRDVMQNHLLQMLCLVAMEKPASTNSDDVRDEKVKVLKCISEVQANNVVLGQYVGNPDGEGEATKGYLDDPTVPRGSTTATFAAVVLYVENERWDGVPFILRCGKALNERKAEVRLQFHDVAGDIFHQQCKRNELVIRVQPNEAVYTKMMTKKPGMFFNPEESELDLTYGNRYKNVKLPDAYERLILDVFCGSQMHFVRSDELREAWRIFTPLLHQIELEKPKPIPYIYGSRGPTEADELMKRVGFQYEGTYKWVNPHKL
Sequence of Cytochrome P450 2C19 (P33261 whole entry): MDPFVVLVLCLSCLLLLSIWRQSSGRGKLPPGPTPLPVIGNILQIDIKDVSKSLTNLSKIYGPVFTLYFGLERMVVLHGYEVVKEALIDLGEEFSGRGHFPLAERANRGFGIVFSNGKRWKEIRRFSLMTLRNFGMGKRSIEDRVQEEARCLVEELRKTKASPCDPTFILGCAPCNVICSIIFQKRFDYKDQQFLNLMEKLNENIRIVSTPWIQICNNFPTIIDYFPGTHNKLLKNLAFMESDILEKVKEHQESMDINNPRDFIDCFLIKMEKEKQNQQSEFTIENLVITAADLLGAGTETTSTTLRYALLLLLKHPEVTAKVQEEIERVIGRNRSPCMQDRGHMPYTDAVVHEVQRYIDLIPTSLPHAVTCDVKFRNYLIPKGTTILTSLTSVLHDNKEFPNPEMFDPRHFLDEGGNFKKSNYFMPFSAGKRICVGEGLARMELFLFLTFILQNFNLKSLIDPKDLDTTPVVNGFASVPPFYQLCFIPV
Sequence of Beta-adrenergic receptor kinase 1 (P25098 whole entry, the tested form may be a part): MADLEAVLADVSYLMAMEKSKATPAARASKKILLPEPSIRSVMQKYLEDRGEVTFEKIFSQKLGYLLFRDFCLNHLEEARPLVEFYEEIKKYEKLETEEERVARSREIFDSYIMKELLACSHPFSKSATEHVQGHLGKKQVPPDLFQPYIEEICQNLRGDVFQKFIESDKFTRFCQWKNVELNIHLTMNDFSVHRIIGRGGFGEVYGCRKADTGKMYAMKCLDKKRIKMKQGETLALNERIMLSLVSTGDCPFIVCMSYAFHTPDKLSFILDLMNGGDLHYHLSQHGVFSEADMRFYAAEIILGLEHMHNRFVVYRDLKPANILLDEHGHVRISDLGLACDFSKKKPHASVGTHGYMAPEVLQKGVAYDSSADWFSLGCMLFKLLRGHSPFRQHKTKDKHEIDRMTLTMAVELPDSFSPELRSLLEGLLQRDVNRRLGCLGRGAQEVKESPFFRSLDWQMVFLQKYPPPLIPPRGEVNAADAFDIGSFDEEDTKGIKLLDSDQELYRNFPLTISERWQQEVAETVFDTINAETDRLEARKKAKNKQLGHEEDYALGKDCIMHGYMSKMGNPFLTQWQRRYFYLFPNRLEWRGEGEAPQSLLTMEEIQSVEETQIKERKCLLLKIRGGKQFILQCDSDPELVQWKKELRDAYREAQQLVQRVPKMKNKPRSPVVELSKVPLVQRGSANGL
Sequence of Genome polyprotein (P29990 2492-3391 limits assumed): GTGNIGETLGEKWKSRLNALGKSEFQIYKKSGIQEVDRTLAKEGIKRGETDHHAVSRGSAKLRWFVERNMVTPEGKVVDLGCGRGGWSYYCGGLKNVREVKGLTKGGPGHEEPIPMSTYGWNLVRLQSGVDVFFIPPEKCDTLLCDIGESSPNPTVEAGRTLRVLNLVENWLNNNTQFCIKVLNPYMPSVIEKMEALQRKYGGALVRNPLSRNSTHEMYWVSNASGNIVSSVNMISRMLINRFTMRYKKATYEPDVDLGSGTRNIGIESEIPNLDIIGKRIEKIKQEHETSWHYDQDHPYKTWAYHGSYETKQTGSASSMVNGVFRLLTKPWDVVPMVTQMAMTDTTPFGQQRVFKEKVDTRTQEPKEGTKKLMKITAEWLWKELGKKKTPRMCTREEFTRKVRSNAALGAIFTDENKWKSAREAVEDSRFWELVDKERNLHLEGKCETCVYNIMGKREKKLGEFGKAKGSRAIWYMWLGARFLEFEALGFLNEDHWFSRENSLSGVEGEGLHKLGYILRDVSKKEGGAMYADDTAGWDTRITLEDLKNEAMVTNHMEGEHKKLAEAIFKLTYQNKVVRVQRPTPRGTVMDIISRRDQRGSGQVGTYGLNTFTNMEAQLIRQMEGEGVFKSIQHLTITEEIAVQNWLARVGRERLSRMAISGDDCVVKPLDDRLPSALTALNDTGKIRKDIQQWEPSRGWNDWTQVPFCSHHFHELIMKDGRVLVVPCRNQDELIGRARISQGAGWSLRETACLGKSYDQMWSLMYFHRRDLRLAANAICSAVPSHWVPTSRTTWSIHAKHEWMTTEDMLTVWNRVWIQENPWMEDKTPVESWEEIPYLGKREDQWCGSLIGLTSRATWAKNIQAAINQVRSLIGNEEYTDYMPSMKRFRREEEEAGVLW
Sequence of Cytochrome P450 2D6 (P10635 whole entry): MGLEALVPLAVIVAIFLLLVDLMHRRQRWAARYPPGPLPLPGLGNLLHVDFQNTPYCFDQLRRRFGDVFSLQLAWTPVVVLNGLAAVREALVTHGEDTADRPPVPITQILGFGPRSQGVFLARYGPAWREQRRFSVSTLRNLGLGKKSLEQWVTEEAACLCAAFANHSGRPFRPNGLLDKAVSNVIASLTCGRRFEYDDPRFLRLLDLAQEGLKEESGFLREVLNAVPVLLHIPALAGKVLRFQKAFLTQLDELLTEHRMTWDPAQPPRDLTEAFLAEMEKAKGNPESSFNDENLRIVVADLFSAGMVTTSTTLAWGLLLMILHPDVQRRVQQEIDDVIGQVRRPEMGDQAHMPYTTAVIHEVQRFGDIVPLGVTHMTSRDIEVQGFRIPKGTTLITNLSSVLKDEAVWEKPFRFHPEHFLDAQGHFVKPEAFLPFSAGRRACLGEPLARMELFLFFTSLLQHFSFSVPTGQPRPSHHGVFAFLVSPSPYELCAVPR

O=C(O)c1cc(N2C(=O)C=CC2=O)cc(N2C(=O)C=CC2=O)c1
IC50 [1]: 61.8 µM (inactive) | AC50 (HeLa): > 350 µM (inactive) | AC50 (ORF 73): 94.5 µM (active) | AC50 (Keap1/Nrf2): 19 µM (active) | IC50 (Genome polyprotein): 19.6 µM (active) | IC50 [2]: > 66.6 µM (inactive) | IC50 [3]: 13.7 µM (active) | IC50 [4]: 19.7 µM (active) | AC50 [5]: 6.9 µM (active) | IC50 (ELAV-like protein 1): 26.9 µM (inactive) | IC50 [6]: 12.3 µM (inactive)

O=C(Nc1cccc2ccccc12)c1nn(C23CC4CC(CC(C4)C2)C3)cc1Br
CC50 [7]: 27.8 µM (active) | AC50 [8]: 1.83 µM (active) | AC50 [9]: 40.6 µM (active) | AC50 (Cytochrome P450 2C19): 2.24 µM (inconclusive) | AC50 (Cytochrome P450 2D6): inconclusive | AC50 (Cytochrome P450 2C9): inconclusive

O=C(CCS(=O)(=O)c1ccc(Br)cc1)Nc1cc(F)ccc1F
EC50 [10]: 2.47 µM (active) | IC50 [11]: 7.86 µM (active)

O=C(c1cnccn1)N1CCC2(CCN(Cc3cc(C(F)(F)F)cc(C(F)(F)F)c3)CC2)CC1
AC50 (Cytochrome P450 1A2): inactive

O=C1c2cccc3c(N4CCCCC4)ccc(c23)C(=O)N1c1ccccn1
EC50 [12]: > 300 µM (inconclusive) | EC50 [13]: 5.26 µM (inconclusive) | AC50 [14]: 58.7 µM (active)
